Read-outs that look alike come from different tables or passages of the source.
How the values were obtained:
Type in all cases: cell-based
[1] = test system: S. aureus strains; assay: Methicillin-resistant Staphylococcus aureus (MRSA) assay, optical density growth curves; details: 6 μg/mL cefoxitin
Method: The BacT/ALERT® SA bottles were inoculated as described in Example A. The positive broth dilution for the MRSA Assay was performed as follows: broth containing a S. aureus isolate was diluted 1:20 into glass tubes containing 9.0 mL of pre-warmed CAMBH, 0.05% saponin and ±6 μg/mL cefoxitin. Ten (10) S. aureus strains representing diverse phenotypes were tested (5 resistant and 5 sensitive).
(§1) Each strain was sub-cultured without the drug as a growth control. The resistance assay tubes (15 mL tubes fitted with septum screw-caps for diluting and sampling) were incubated in a custom-built, heated, rocking optical density unit, placed within a resistance module, and time-dependent changes in the optical at 660 nm of each culture tube were measured every 45 seconds for periods of up to 12 hours. To maximize microbial growth and minimize measurement noise, tubes were rocked between +/−18 degrees from horizontal at 36 cycles/min for 30 seconds, then returned to the upright position for 15 seconds before an optical density reading was taken.
To detect MRSA directly from positive blood cultures, 10 broth samples containing S. aureus strains representing diverse phenotypes were sub-cultured for up to 12 hours with and without 6 μg/mL of cefoxitin (5 resistant and 5 sensitive strains).
To better discriminate microbial growth from background increases in media optical density, slopes of the growth curves were calculated and plotted (FIGS. 7B, 7D, and 7F).

[2] = test system: K. pneumoniae or E. coli isolates; assay: Carbapenem-resistant Enterobacteriaceae (CRE) assay, optical density at 660 nm over time; details: 4 ug/mL imipenem; 8 strains harboring carbapenemase genes
Method: BacT/ALERT® SA bottles were inoculated with 10 mL of SPS-anticoagulated normal human blood and seeded with <100 CFU of S. aureus, E. faecalis, E. faecium, E. coli and K. pneumoniae isolates. Within 15 minutes of flagging positive, the bottles were manually unloaded and either tested immediately or kept on ice until tested. If chilled, a positive bottle was warmed in a 36° C. water bath for 15-20 minutes before removing samples. The positive broth dilutions were performed manually. […]
as §1, with “taken. […]” for “taken.”

[3] = test system: van B containing E. faecalis strains; assay: MIC of van B containing E. faecalis strains
[4] = test system: E. faecium strains; assay: Vancomycin-resistant enterococci (VRE) assay, optical density growth curves; details: 6 μg/mL vancomycin; all 17 resistant E. faecium strains
Method: (§2) The BacT/ALERT® SA bottles were inoculated as described in Example A. The positive broth dilution for the […] was performed as follows: broth containing E. faecium or E. faecalis isolates was spun for 10 seconds @10,600 g in a 1.5 mL microcentrifuge tube to sediment red blood cells (RBC). One (1.0) mL of the RBC depleted supernatant was recovered and diluted into 4.0 mL of pre-warmed BacT/ALERT® SA media±6 μg/mL vancomycin. Thirty-one (31) E. faecium and 7 E. faecalis strains were tested (23 resistant and 15 sensitive).
(§3) To rapidly detect VRE in positive blood cultures, 38 broth samples containing E. faecium and E. faecalis strains were depleted of red blood cells and then diluted 1:5 in BacT/ALERT® SA blood culture media with and without 6 μg/mL of vancomycin (23 resistant and 15 sensitive strains).

[5] = test system: E. faecalis strains; assay: as above
Method: as §2, §3

CO[C@@]1(NC(=O)Cc2cccs2)C(=O)N2C(C(=O)O)=C(COC(N)=O)CS[C@@H]21 [cefoxitin]
time to growth in cefoxitin media ([1]; 3 of the 5 MRSA strains): ≤ 2 h | growth in cefoxitin media ([1]; 5 sensitive S. aureus strains, by 12 hours): failed to grow | slopes of the growth curves ([1]; 5 sensitive strains, after 60 min equilibration, over 720 min): decreasing or flat slopes | time to growth in cefoxitin media ([1]; Positive Control MRSA strain ATCC 43300): ≤ 2.5 h | time to growth in cefoxitin media ([1]; weakly resistant MRSA strain (E-test MIC=16 ug/mL)): ≤ 4.5 h

C[C@@H](O)[C@H]1C(=O)N2C(C(=O)O)=C(SCCN=CN)C[C@H]12 [imipenem]
time to growth in the presence of imipenem [2]: ≤ 2 h

CN[C@H](CC(C)C)C(=O)N[C@H]1C(=O)N[C@@H](CC(N)=O)C(=O)N[C@H]2C(=O)N[C@H]3C(=O)N[C@H](C(=O)N[C@H](C(=O)O)c4cc(O)cc(O)c4-c4cc3ccc4O)[C@H](O)c3ccc(c(Cl)c3)Oc3cc2cc(c3O[C@@H]2O[C@H](CO)[C@@H](O)[C@H](O)[C@H]2O[C@H]2C[C@](C)(N)[C@H](O)[C@H](C)O2)Oc2ccc(cc2Cl)[C@H]1O [vancomycin]
MIC ([3]; CLSI Positive Control strain ATCC 51299, in µg/mL): 16-24 | MIC ([3]; Enterococcus faecalis, three van B containing E. faecalis strains, read-out: MIC): 16 to 64 µg/mL | time to detection of growth with vancomycin [4]: ≤ 2 h | time to detection of growth with vancomycin ([5]; 6 μg/mL vancomycin, three low MIC van B containing E. faecalis strains): 3 to 4 h | time to detection of growth with vancomycin ([5]; delayed van B isolates, starting subculture optical density raised from <0.10 to 0.25-0.45, data not shown): 2 to 2.5 h
